Test results published in PMC4965013, “Open Source Drug Discovery with the Malaria Box Compound Collection for Neglected Diseases and Beyond” (PLoS Pathogens, 2016).
Where two headings read alike, the source gives them in different places.

Columns and labels:
[1] = system: P. falciparum Dd2; experiment: Malaria Sybr Green I Fluorescence assay Dd2 Horrocks; format: cell-based; settings: Plasmodium falciparum, DD2, 48 h; read-out: P. falciparum Dd2 asexual blood stage EC50 Horrocks
Experimental: Column S: Horrocks group (data presented first in this paper). Asexual Dd2 inhibition of growth (IC50s): IC50 for the Dd2 clone of Plasmodium falciparum were determined using the Malaria Sybr Green I Fluorescence assay. Drug assays were initiated using a 2% trophozoite stage parasitaemia and 2% hematocrit and fluorescence measured after 48 h as fully described in Hasenkamp et al.[53]. Log dose-response curves were plotted in GraphPad Prism (v5.0). The controls for Dd2 using our 48hr Sybr Green I assay were (rounded to nearest nM): Chloroquine 209nM, Mefloquine 11nM, Quinine 246nM, Dihydroartemisinin 4nM, Artemether 10nM, Atovaquone 3nM.

[2] = system: P. falciparum 3D7 or K1; experiment: Asexual Blood Stage Imaging Assay (DAPI) V. Avery; format: cell-based
[3] = system: Chromera velia; experiment: Chromera velia flagellation motility assay
[4] = system: HIV-1 JR-FL or HIV-1 NL4-3 pseudoviruses; experiment: HIV-1 pseudovirus infection luciferase; format: cell-based; settings: 10µM
Experimental: (§1) Columns FK-GB, Moore group (data presented first in this paper). HIV and HIV-producing cell lines, toxicity and viral suppression. […] MMV compounds were incubated with HIV-1 JR-FL or HIV-1 NL4-3 pseudoviruses and U87-CD4-CCR5 or U87-CD4-CXCR4 cells (obtained through the NIH AIDS Reagent Program, Division of AIDS, NIAID, NIH: U87 CD4+CCR5+ Cells from Dr. HongKui Deng and Dr. Dan R. Littman) respectively for 3 days. Cells were assayed for infection by luciferase production (Bright-Glo Luciferase Substrate, Promega) and cell viability by MTT assay. […] MMV compounds were next incubated with HIV-1 JR-FL or HIV-1 NL4-3 viruses and U87-CD4-CCR5 or U87-CD4-CXCR4 cells respectively for 7 days. Cell supernatants were assayed for viral production by p24 ELISA [153] and cell viability by MTT assay. […] DMSO (5%) was completely toxic to all cells (based on visual inspection) and served as the positive control for MTT assays.

[5] = system: HIV-1 JR-FL or HIV-1 NL4-3 viruses; experiment: HIV-1 viral production p24 ELISA; format: cell-based; settings: 10µM
Experimental: as §1

[6] = system: P. falciparum NF54 GFP-Pfs16 gametocytes stage IV-V; settings: ref [71]; cited from earlier work
[7] = system: P. falciparum NF54 GFP-Pfs16 gametocytes stage I-III; settings: ref [71]; cited from earlier work
[8] = system: P. falciparum 3D7 trophozoites; experiment: Metabolomic fingerprint profiling LC-MS; format: cell-based, Plasmodium falciparum; design: UDP-D-glucose / ADP-D-glucose: unit not given here
[9] = system: P. falciparum; experiment: EC50 listed in S2 Table Metabolomics (used to set the concentration tested); format: cell-based; settings: Plasmodium falciparum; EC50 used for Factor_XEC50 in metabolomics; read-out: EC50_nM
[10] = system: P. falciparum HB3; experiment: Stage-specificity / mitochondrial integrity image assay Ayong; format: cell-based; settings: 10µM
[11] = system: Naegleria fowleri trophozoites; experiment: Naegleria fowleri CellTiter-Glo; format: cell-based
Excerpt: Columns CY-CZ: Kyle group (data presented first in this paper). Naegleria fowleri trophozoite growth inhibition. Methods: The CellTiter-Glo (CTG) 2.0 luminescent assay is a quantitative assay that assesses the presence of cellular ATP in lysed cells, displaying an output in Relative Light Units (RLU’s). This was previously standardised, for the growth and development of Naegleria fowleri trophozoites in-vitro to assess drug susceptibility on this parasite. […] These included two drug-like molecules MMV665807 (St. Jude’s Children’s Hospital) and MMV665979 (The Genomics Institute of the Novartis Research Foundation - GNF) and two Probe-like molecules, MMV006203 (GNF) & MMV006172 (GNF; GlaxoSmithKline - GSK). […] However, these Malaria Box compounds were all toxic to zebrafish and mammalian cells.

[12] = Plasmodium falciparum, read-out: P. falciparum 3D7 asexual blood stage EC50 (Image) V. Avery
[13] = Plasmodium falciparum, read-out: P. falciparum K1 asexual blood stage EC50 (Image) V. Avery
[14] = metabolite level change after treatment

## C=C[C@H]1C[N@@]2CC[C@H]1C[C@H]2[C@H](O)c1ccnc2ccc(OC)cc12 [Quinine]
[1]
  EC50: 246 nM

## CC[C@H](C)[C@H](NC(=O)[C@H]([C@@H](C)CC)N(C)C(C)=O)C(=O)N[C@H](C(=O)N[C@@H](CC(C)C)C(=O)[C@@]1(C)CO1)[C@@H](C)O [epoxomicin]
[2]; 3D7, read-out: P. falciparum 3D7 asexual blood stage EC50 (Image) V. Avery
  EC50: 1 nM
[2]; K1, read-out: P. falciparum K1 asexual blood stage EC50 (Image) V. Avery
  EC50: 2 nM

## Oc1cc(Cl)ccc1Oc1ccc(Cl)cc1Cl [triclosan, reference compound]
[3]; 0.1 µM
  C. velia flagellation score: +
[3]; 1µM
  C. velia flagellation score: 0

## Cc1cn([C@H]2C[C@H](N=[N+]=[N-])[C@@H](CO)O2)c(=O)[nH]c1=O [AZT, reference compound]
[4]
  viral infection by luciferase, positive control: completely blocked viral infection
[5]
  viral infection by p24 production, positive control: completely blocked viral infection

## CCc1nc(N)nc(N)c1-c1ccc(Cl)cc1 [pyrimethamine, reference compound]
[6]
  late gametocyte imaging, no activity at: > 40 µM
[7]
  early gametocyte imaging, no activity at: > 40 µM
[2]; [12]
  EC50: 2 nM
[2]; [13]
  EC50: 7200 nM

## OC(c1cc(C(F)(F)F)nc2c(C(F)(F)F)cccc12)C1CCCCN1 (stereo not drawn) [Mefloquine]
[1]
  EC50: 11 nM

## COc1ccc2nc3cc(Cl)ccc3c(Nc3cc(CN4CCCC4)c(O)c(CN4CCCC4)c3)c2n1 [pyronaridine]
[2]; [12]
  EC50: 3 nM
[2]; [13]
  EC50: 5 nM

## O=C1C(O)=C([C@H]2CC[C@H](c3ccc(Cl)cc3)CC2)C(=O)c2ccccc21 [Atovaquone, reference compound]
[1]
  EC50: 3 nM
[8]; S2 Table Metabolomics, metabolite Acetyllysine
  Acetyllysine: -0.04735
[8]; S2 Table Metabolomics, metabolite N-acetyl-L-ornithine
  N-acetyl-L-ornithine: -0.04174
[8]; S2 Table Metabolomics, metabolite N-carbamoyl-L-aspartate
  N-carbamoyl-L-aspartate: 3.574
[8]; S2 Table Metabolomics, metabolite NADPH
  NADPH: 0.3866
[8]; S2 Table Metabolomics, metabolite dAMP
  dAMP: -0.09487
[8]; S2 Table Metabolomics, metabolite dCMP
  dCMP: 0.3344
[8]; S2 Table Metabolomics, metabolite dTDP
  dTDP: -0.7104
[8]; S2 Table Metabolomics, metabolite dTMP
  dTMP: -0.4179
[8]; S2 Table Metabolomics, metabolite dTTP
  dTTP: -0.8198
[8]; S2 Table Metabolomics, metabolite dihydroorotate
  dihydroorotate: 4.214
[8]; S2 Table Metabolomics, metabolite orotate
  orotate: -0.07211
[8]; S2 Table Metabolomics, peptide DLH
  DLH: -0.06109
[8]; S2 Table Metabolomics, peptide DLS/SDL/SID
  DLS/SDL/SID: -0.04893
[8]; S2 Table Metabolomics, peptide PD
  PD: 0.1235
[8]; S2 Table Metabolomics, peptide PEE
  PEE: -0.1722
[8]; S2 Table Metabolomics, peptide PVNF
  PVNF: -0.41
[8]; metabolite 3-phosphoglycerate, S2 Table Metabolomics
  3-phosphoglycerate: 0.03739
[8]; metabolite ADP-D-glucose, S2 Table Metabolomics
  ADP-D-glucose: 0.08423
[8]; metabolite ATP, S2 Table Metabolomics
  ATP: 0.06271
[8]; metabolite CDP, S2 Table Metabolomics, change in metabolite level after compound treatment
  CDP: -0.5138
[8]; metabolite D-sedoheptulose-1/7-phosphate, S2 Table Metabolomics, change in metabolite level after compound treatment
  D-sedoheptulose-1/7-phosphate: 0.1418
[8]; metabolite FAD, S2 Table Metabolomics
  FAD: 0.1027
[8]; metabolite GMP, S2 Table Metabolomics, change in metabolite level after compound treatment
  GMP: 0.1184
[8]; metabolite NAD+, S2 Table Metabolomics
  NAD+: 0.1854
[8]; metabolite NADP+, S2 Table Metabolomics
  NADP+: 0.1184
[8]; metabolite Octoluse Bisphosphate, S2 Table Metabolomics, change in metabolite level after compound treatment
  Octoluse Bisphosphate: -0.059
[8]; metabolite Pyroglutamic acid, S2 Table Metabolomics
  Pyroglutamic acid: 0.08924
[8]; metabolite UDP-D-glucose, S2 Table Metabolomics
  UDP-D-glucose: 0.001015
[8]; metabolite UDP-D-glucuronate, S2 Table Metabolomics
  UDP-D-glucuronate: -0.0616
[8]; metabolite UDP-N-acetyl-glucosamine, S2 Table Metabolomics
  UDP-N-acetyl-glucosamine: -0.1593
[8]; metabolite UDP, S2 Table Metabolomics, change in metabolite level after compound treatment
  UDP: -0.7439
[8]; metabolite UMP, S2 Table Metabolomics, change in metabolite level after compound treatment
  UMP: -0.8555
[8]; metabolite UTP, S2 Table Metabolomics, change in metabolite level after compound treatment
  UTP: -1.1527
[8]; metabolite a-ketoglutarate, S2 Table Metabolomics
  a-ketoglutarate: -0.0182
[8]; metabolite citrate/isocitrate, S2 Table Metabolomics, change in metabolite level after compound treatment
  citrate/isocitrate: -0.0966
[8]; metabolite cytidine, S2 Table Metabolomics
  cytidine: 0.2964
[8]; metabolite dATP, S2 Table Metabolomics
  dATP: 0.2506
[8]; metabolite dGMP/AMP, S2 Table Metabolomics, change in metabolite level after compound treatment
  dGMP/AMP: -0.116
[8]; metabolite fumarate, S2 Table Metabolomics, change in metabolite level after compound treatment
  fumarate: 0.379
[8]; metabolite glucose-1/6-phosphate, S2 Table Metabolomics, change in metabolite level after compound treatment
  glucose-1/6-phosphate: 0.3695
[8]; metabolite glycerate, S2 Table Metabolomics, change in metabolite level after compound treatment
  glycerate: 0.1345
[8]; metabolite guanine, S2 Table Metabolomics, change in metabolite level after compound treatment
  guanine: 0.3762
[8]; metabolite guanosine, S2 Table Metabolomics, change in metabolite level after compound treatment
  guanosine: 0.6121
[8]; metabolite hypoxanthine, S2 Table Metabolomics
  hypoxanthine: 0.2162
[8]; metabolite indole, S2 Table Metabolomics
  indole: 0.1728
[8]; metabolite inosine, S2 Table Metabolomics, change in metabolite level after compound treatment
  inosine: 0.1672
[8]; [14]
  2_3-Diphosphoglyceric acid: -0.09802
  4-phosphopantothenate: -0.2334
  6-phospho-D-gluconate: 0.01237
  FMN: -0.003621
  IMP: 0.3101
  Pyrophosphate: -0.1571
  Sedoheptoluse bisphosphate: 0.01404
  cyclic-AMP: -0.03093
  glutathione disulfide: 0.00323
  lactate: 0.02673
  myo-inositol: 0.3272
[8]; metabolite nicotinate, S2 Table Metabolomics
  nicotinate: 0.1461
[8]; metabolite ornithine, S2 Table Metabolomics
  ornithine: 0.1076
[8]; metabolite phosphoenolpyruvate, S2 Table Metabolomics
  phosphoenolpyruvate: 0.02037
[8]; metabolite pyruvate, S2 Table Metabolomics, change in metabolite level after compound treatment
  pyruvate: -0.07747
[8]; metabolite ribose-phosphate, S2 Table Metabolomics
  ribose-phosphate: 0.1578
[8]; metabolite sarcosine/alanine, S2 Table Metabolomics, change in metabolite level after compound treatment
  sarcosine/alanine: -0.1241
[8]; metabolite sn-glycerol-3-phosphate, S2 Table Metabolomics
  sn-glycerol-3-phosphate: 0.1524
[8]; metabolite succinate/methylmalonic acid, S2 Table Metabolomics, change in metabolite level after compound treatment
  succinate/methylmalonic acid: -0.1814
[8]; metabolite uridine, S2 Table Metabolomics, change in metabolite level after compound treatment
  uridine: -0.1824
[8]; metabolite xanthosine, S2 Table Metabolomics, change in metabolite level after compound treatment
  xanthosine: 0.05904
[9]
  EC50: 1 nM

## CO[C@H]1O[C@@H]2O[C@@]3(C)CC[C@H]4[C@H](C)CC[C@@H]([C@H]1C)[C@@]24OO3 [Artemether]
[1]
  EC50: 10 nM

## CC(=O)N[C@@H]1[C@@H](O)[C@H](O)[C@@H](CO)O[C@H]1O [GlcNAC, N-acetylglucosamine, reference compound]
[10]
  Effects on asexual life cycle progression (treatment at ER, LR, T, S; merozoites; mitochondrial integrity): LR-o-o-o-X-o

## FC(F)(F)c1cccc(CNC2CCN(CCc3ccccc3)CC2)c1 [MMV665979]
[11]
  Naegleria fowleri hit in words: outstanding hit
[11]; Naegleria fowleri
  EC50: 190 nM
